Results taken from US20160297828A1, “SPIROCYCLIC COMPOUNDS CONTAINING SPIRO[INDOLYL-3,1'-PYRROLO[3,4-C]PYRROLE] CORE AND SULPHUR-CONTAINING AMINO ACID RESIDUES” (priority 2013, published 2016).
Marks after values point to notes of the source that are not given here.

Experiments:
11β-corticosterone = 11β-corticosterone level in venous blood of pseudo-operated rats (ELISA); assay type: in vivo, Wistar rats; details: pseudo-operated animals + SI-86 10 mg/kg iv
Description: Pseudo-operated rats were exposed to all interventions (anesthesia, skin incision, dissection of vessels) except arteries ligation that leveled traumatic impact of experimental conditions.
To determine a corticosterone level (species-specific cortisol analogue in rats, which is also a substrate for 11β-HSD1) in the corresponding period (4 th and 21 st CVA day) in rat by sagittal sinus puncture, blood was sampled (0.2-0.4 ml). The cortisol level was measured by ELISA using a CORTICOSTERONEE KIT set (Germany) on the instrument of the company “Hipson” (Czech Republic).
To establish the effect of course administration of SI-86 compound on steroid synthesis in animals without cerebral ischemia the dynamics of its level in pseudo-operated rats in the same period was additionally determined.

[1] = tested on: rats with intracerebral hemorrhage; assay: Lethality of rats with intracerebral hemorrhage of average severity; assay type: in vivo
Description: The chosen model allows to reproduce clinical pattern of […] and is adequate for clinical study of potential neuroprotective agents.
As comparators the following drugs were used: mexydol (“Mexydol” UC Pharmasoft, Russia), 100 mg/kg; citicoline (“Somazina” Ferrer International, SA, Spain), 250 mg/kg; aktovegin (“Aktovegin”, Nycomed, Austria), 16 mg/kg pyracetam (“Pyracetam” Darnitsa, Ukraine), 400 mg/kg. According to the latest clinical guidelines regarding the treatment of patients with CVA approved by the Ministry of Health of Ukraine (Order No. 602 dated 3 Aug. 2012), all these drugs are allowed to be included into schemes for intensive patients therapy with CVA as neuroprotective agents. They were used at recommended doses for preclinical studies (McGrow C. P. Experimental Cerebral Infarction Effects of Pentobarbital in Mongolian Gerbils/C. P. McGrow//Arch. Neurol.-1977.-Vol. 34, No. 6.-P. 334-336). Experimental therapy of acute cerebral ischemia with SI-86 compound and comparator started 1 hour after IUD once a day for 21 days. […] Reference drugs were injected intraperitoneally (ip). Rats of control pathology group were injected by autoblood and as therapy 0.9% NaCI solution was administered calculated for 2 ml/kg iv.
Pseudo-operated rats were exposed to all interventions (anesthesia, craniotomy) excluding autoblood administration that leveled traumatic impact of experimental conditions.
Evaluation of the ability of animals to learn and memorize of aversive stimulus was examined in the test of conditioned response of passive avoidance (CRPA). The technique is based on innate rat instinct to limited shadowy space. The study in rats was conducted in two-compartment unit consisted of two sections—light and dark. An animal was arranged into light compartment, fixing latency time for entering into the dark compartment, wherein rat received current irritation and ran in the light compartment. CRPA retention was tested every other day under latency time change of rat entering into the dark compartment. Also the number of animals was noted not fully entered the dark chamber. Cerebroprotective efficiency criteria of studied compounds were also animal death term (days) and their mortality rate (in %).
Quantitative data were processed using statistical StatPlus 2009 processing. The statistical significance of differences was assessed by Fisher's angular transformation (lethality outcome), also parametric t Student criterion were used in case of normal distribution of variation series, nonparametric W White criterion—in its absence.

[2] = 12 h, SI-86 10 mg/kg iv, mexydol 100, citocoline 250, actovegin 16, pyracetam 400 mg/kg

SMILES: CSCC[C@@H]1N[C@@]2(C(=O)Nc3ccccc32)[C@@H]2C(=O)N(c3ccc(C)cc3)C(=O)[C@H]12 [SI-86, 5′-(4-Methylphenyl)-3′-[2-(methylthio)ethyl]-3a′,6a′-dihydro-2′H-spiro[indole-3,1′-pyrrolo[3,4-c]pyrrol]-2,4′,6′(1H,3′H,5′H)-trione]
- 11β-corticosterone level in venous blood (11β-corticosterone; day 4): 81.95 ± 0.61 ng/mL
- dynamics in percents in relation to the group of pseudo-operated animals (11β-corticosterone; day 4): (−31.9%)
- 11β-corticosterone level in venous blood (11β-corticosterone; day 21): 83.02 ± 4.25 ng/mL
- dynamics in percents in relation to the group of pseudo-operated animals (11β-corticosterone; day 21): (−10.2%)
- Lethality, % [1, 2]: 0/0%
- Lethality, abs. [1, 2]: 0/0%
- Lethality, abs. ([1]; 24 h, same doses): 0/0%*^#
- cerebroprotective protection ([1]; 24 h observation, SI-86 10, mexydol 100, citicoline 250 mg/kg): 100%
- Lethality, abs. ([1]; 48 h, same doses): 0/0%*^#&•$
- Lethality, % ([1]; 72 h, same doses): 5.9%
- Lethality, abs. ([1]; 72 h, same doses): 2
- Lethality, % ([1]; 96 h, same doses): 11.8%
- Lethality, abs. ([1]; 96 h, same doses): 4
